Test results reported in ChEMBL document CHEMBL1909046, “DrugMatrix in vitro pharmacology data”.
*1 amine or outer side, *2 acyl side, *3 side chain or, on linkers, in order; H or OH if unused. Where a SMILES comes first, the peptide text is derived from it. Bridges are numbered along the chain shown (N, C = ends). Roman numbers before positions name the chains, in order. [ ]: non-standard residue; d: D form. Actinocin(1to9) = Cc1c2oc3c(C)ccc(C(=O)[*:2])c3nc-2c(C(=O)[*:1])c(N)c1=O; NMeV = CN[C@H](C(=O)O)C(C)C; Sar = CNCC(=O)O

Key:
[1] = DRUGMATRIX: Serotonin (5-Hydroxytryptamine) 5-HT3 radioligand binding (ligand: [3H] GR-65630); type: cell membranes, Membrane; settings: hek293, Not Active = under 50% inhibition at 10 µM
[2] = DRUGMATRIX: Sigma2 radioligand binding (ligand: [3H] Ifenprodil); type: cell membranes, Rattus norvegicus, Wistar, Brain, Membrane; settings: Not Active = under 50% inhibition at 10 µM
[3] = target: T1, Vasoactive intestinal polypeptide receptor 1 (Homo sapiens, UniProt P32241); type: cell membranes, Membrane; settings: ht-29; note: in other assays of this panel Not Active means under 50% inhibition at 10 µM
T1 sequence (P32241 whole entry): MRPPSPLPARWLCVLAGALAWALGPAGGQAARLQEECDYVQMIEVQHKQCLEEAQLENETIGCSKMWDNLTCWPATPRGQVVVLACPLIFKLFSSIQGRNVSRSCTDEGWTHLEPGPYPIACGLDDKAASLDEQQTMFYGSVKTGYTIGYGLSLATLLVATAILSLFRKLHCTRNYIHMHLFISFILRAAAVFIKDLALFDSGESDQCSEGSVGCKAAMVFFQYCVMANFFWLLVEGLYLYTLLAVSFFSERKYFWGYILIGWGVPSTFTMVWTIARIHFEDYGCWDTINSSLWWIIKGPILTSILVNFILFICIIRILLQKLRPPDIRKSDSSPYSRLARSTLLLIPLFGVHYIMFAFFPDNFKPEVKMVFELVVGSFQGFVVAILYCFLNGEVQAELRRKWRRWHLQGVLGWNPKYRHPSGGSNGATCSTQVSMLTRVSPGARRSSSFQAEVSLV

[4] = DRUGMATRIX: GABAA, Chloride Channel, TBOB radioligand binding (ligand: [3H] TBOB); type: cell membranes, Rattus norvegicus, Wistar, Cerebral cortex, Membrane; settings: Not Active = under 50% inhibition at 10 µM
[5] = DRUGMATRIX: Glutamate, Kainate radioligand binding (ligand: [3H] Kainic acid); type: cell membranes, Rattus norvegicus, Wistar, Brain, Membrane; settings: Not Active = under 50% inhibition at 10 µM
Adenosine receptor A1 = target: T2, Adenosine receptor A1 (Homo sapiens, UniProt P30542); type: cell membranes, CHO, Membrane; settings: cho;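 note: radioligand binding assay at the adenosine A1 receptor, with DPCPX serving as the labelled ligand; in other assays of this panel Not Active means under 50% inhibition at 10 µM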
T2 sequence (P30542 whole entry): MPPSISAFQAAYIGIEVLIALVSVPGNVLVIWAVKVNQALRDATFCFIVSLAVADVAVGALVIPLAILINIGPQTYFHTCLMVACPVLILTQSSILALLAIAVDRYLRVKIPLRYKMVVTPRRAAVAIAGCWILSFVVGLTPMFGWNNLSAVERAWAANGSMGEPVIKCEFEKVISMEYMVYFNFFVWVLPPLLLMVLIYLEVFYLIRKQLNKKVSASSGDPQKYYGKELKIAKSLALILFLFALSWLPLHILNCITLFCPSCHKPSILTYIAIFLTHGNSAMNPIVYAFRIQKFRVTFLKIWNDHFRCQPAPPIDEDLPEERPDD

Adenosine receptor A3 = target: T3, Adenosine receptor A3 (Homo sapiens, UniProt P0DMS8); type: cell membranes, CHO-K1, Membrane; settings: cho-k1;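 note: radioligand binding assay with AB-MECA serving as the labeled ligand; in other assays of this panel Not Active means under 50% inhibition at 10 µM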
T3 sequence (P0DMS8 whole entry): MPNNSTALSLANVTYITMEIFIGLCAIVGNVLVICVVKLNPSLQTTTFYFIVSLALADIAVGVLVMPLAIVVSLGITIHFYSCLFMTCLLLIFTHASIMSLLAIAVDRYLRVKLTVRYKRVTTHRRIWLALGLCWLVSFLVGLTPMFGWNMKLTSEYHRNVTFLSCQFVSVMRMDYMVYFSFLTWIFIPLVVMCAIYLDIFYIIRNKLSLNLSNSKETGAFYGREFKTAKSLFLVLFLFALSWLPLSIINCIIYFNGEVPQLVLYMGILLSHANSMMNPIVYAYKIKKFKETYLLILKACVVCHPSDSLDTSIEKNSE

Compound | IC50 [1] | Ki [1] | IC50 [2] | Ki [2] | IC50 [3] | IC50 [4] | Ki [4] | IC50 [5] | Ki [5] | IC50 (Adenosine receptor A1) | IC50 (Adenosine receptor A3) | IC50 ([2]; read-out: IC50) | Ki ([2]; read-out: Ki) | Ki [3] | Ki (Adenosine receptor A1) | Ki (Adenosine receptor A3) | IC50 ([1]; read-out: IC50) | Ki ([1]; read-out: Ki)
Cc1c2oc3c(C)ccc(C(=O)N[C@@H]4C(=O)N[C@H](C(C)C)C(=O)N5CCC[C@H]5C(=O)N(C)CC(=O)N(C)[C@@H](C(C)C)C(=O)O[C@@H]4C)c3nc-2c(C(=O)N[C@@H]2C(=O)N[C@H](C(C)C)C(=O)N3CCC[C@H]3C(=O)N(C)CC(=O)N(C)[C@@H](C(C)C)C(=O)O[C@@H]2C)c(N)c1=O [DACTINOMYCIN] (I: T[dV]P[Sar][NMeV] / II: T[dV]P[Sar][NMeV]; ester I:1-I:C, II:1-II:C; linker I:N-II:N via Actinocin(1to9)) | Not Active | Not Active | Not Active | Not Active | Not Active | Not Active | Not Active | Not Active | Not Active | Not Active | Not Active | – | – | – | – | – | – | –
C=C(C)C1(O)OC(=O)C=C1OC (centres undefined) [PENICILLIC ACID] | Not Active | Not Active | Not Active | Not Active | Not Active | Not Active | Not Active | Not Active | Not Active | Not Active | Not Active | – | – | – | – | – | – | –
CN(Cc1ccc(C(C)(C)C)cc1)Cc1cccc2ccccc12 [BUTENAFINE] | Not Active | Not Active | – | – | Not Active | Not Active | Not Active | Not Active | Not Active | Not Active | Not Active | 0.255 µM | 0.157 µM | – | – | – | – | –
NC(=O)N1c2ccccc2CCc2ccccc21 | Not Active | Not Active | Not Active | Not Active | Not Active | Not Active | Not Active | Not Active | Not Active | Not Active | Not Active | – | – | – | – | – | – | –
Cc1onc(-c2ccccc2Cl)c1C(=O)N[C@@H]1C(=O)N2[C@@H]1SC(C)(C)[C@@H]2C(=O)O [CLOXACILLIN] | Not Active | Not Active | Not Active | Not Active | Not Active | Not Active | Not Active | Not Active | Not Active | Not Active | Not Active | – | – | – | – | – | – | –
COc1ccc(C[C@H]2NC[C@H](O)[C@H]2OC(C)=O)cc1 [ANISOMYCIN] | Not Active | Not Active | Not Active | Not Active | Not Active | Not Active | Not Active | Not Active | Not Active | Not Active | Not Active | – | – | Not Active | Not Active | Not Active | – | –
CCn1cc(C(=O)O)c(=O)c2cc(F)c(N3CCNCC3)cc21 [NORFLOXACIN] | Not Active | Not Active | Not Active | Not Active | Not Active | Not Active | Not Active | Not Active | Not Active | Not Active | Not Active | – | – | – | – | – | – | –
CCC1(c2ccc(N)cc2)CCC(=O)NC1=O (centres undefined) [AMINOGLUTETHIMIDE] | Not Active | Not Active | Not Active | Not Active | Not Active | Not Active | Not Active | Not Active | Not Active | Not Active | Not Active | – | – | – | – | – | – | –
Cc1ccc(/N=C/N(C)/C=N/c2ccc(C)cc2C)c(C)c1 [AMITRAZ] | Not Active | Not Active | Not Active | Not Active | Not Active | Not Active | Not Active | Not Active | Not Active | Not Active | Not Active | – | – | – | – | – | – | –
Cc1ccc(N(CC2=NCCN2)c2cccc(O)c2)cc1 [PHENTOLAMINE] | Not Active | Not Active | Not Active | Not Active | Not Active | Not Active | Not Active | Not Active | Not Active | Not Active | Not Active | – | – | – | – | – | – | –
CNNCc1ccc(C(=O)NC(C)C)cc1 [PROCARBAZINE] | Not Active | Not Active | Not Active | Not Active | Not Active | Not Active | Not Active | Not Active | Not Active | Not Active | Not Active | – | – | – | – | – | – | –
CN(C)c1nc(N(C)C)nc(N(C)C)n1 [ALTRETAMINE] | Not Active | Not Active | Not Active | Not Active | Not Active | Not Active | Not Active | Not Active | Not Active | Not Active | Not Active | – | – | – | – | – | – | –
OC(Cn1cncn1)(Cn1cncn1)c1ccc(F)cc1F [FLUCONAZOLE] | Not Active | Not Active | Not Active | Not Active | Not Active | Not Active | Not Active | Not Active | Not Active | Not Active | Not Active | – | – | – | – | – | – | –
C[C@]12CCC(=O)C=C1CC[C@@H]1[C@@H]2CC[C@@]2(C)[C@H]1CC[C@]2(C)O [METHYLTESTOSTERONE] | Not Active | Not Active | Not Active | Not Active | Not Active | Not Active | Not Active | Not Active | Not Active | Not Active | Not Active | – | – | – | – | – | – | –
O=c1oc2ccccc2c(O)c1Cc1c(O)c2ccccc2oc1=O [DICUMAROL] | Not Active | Not Active | Not Active | Not Active | Not Active | Not Active | Not Active | Not Active | Not Active | Not Active | Not Active | – | – | – | – | – | – | –
N=C(N)NCCN1CCCCCCC1 [GUANETHIDINE] | Not Active | Not Active | Not Active | Not Active | Not Active | Not Active | Not Active | Not Active | Not Active | Not Active | Not Active | – | – | – | – | – | – | –
Cc1cc(C2CCCCC2)n(O)c(=O)c1 [CICLOPIROX] | Not Active | Not Active | Not Active | Not Active | Not Active | Not Active | Not Active | Not Active | Not Active | Not Active | Not Active | – | – | – | – | – | – | –
CCOc1ccc(NC(C)=O)cc1 [PHENACETIN] | Not Active | Not Active | Not Active | Not Active | Not Active | Not Active | Not Active | Not Active | Not Active | Not Active | Not Active | – | – | – | – | – | – | –
CN(C)CCCN1c2ccccc2Sc2ccc(Cl)cc21 [CHLORPROMAZINE] | – | – | – | – | Not Active | Not Active | Not Active | Not Active | Not Active | Not Active | Not Active | 2.72 µM | 1.67 µM | – | – | – | 7.37 µM | 1.66 µM
NC1=NC(=O)C(c2ccccc2)O1 (centres undefined) [PEMOLINE] | Not Active | Not Active | Not Active | Not Active | Not Active | Not Active | Not Active | Not Active | Not Active | Not Active | Not Active | – | – | – | – | – | – | –
C[C@H](CCC(=O)O)[C@H]1CC[C@H]2[C@@H]3[C@H](O)C[C@@H]4C[C@H](O)CC[C@]4(C)[C@H]3C[C@H](O)[C@]12C [CHOLIC ACID] | Not Active | Not Active | Not Active | Not Active | Not Active | Not Active | Not Active | Not Active | Not Active | Not Active | Not Active | – | – | – | – | – | – | –
